Marks after values point to notes of the source that are not given here.
What was measured:
[1] = system: HT-29/Tet-bcl-2 xenografts; assay: HT-29/Tet-bcl-2 xenograft growth; type: in vivo, mice; conditions: Table 3B, 30 days after inoculation
Procedure: For HT-29 cancer cell xenograft experiments, female nu/nu nude mice (ages 6 to 8 weeks; Charles Rivers Laboratories, Wilmington, Mass.) were inoculated s.c. with 5×10^6 HT-29 or HT-29-GFP cells per mouse. Tumor volume was calculated based on two dimensions, measured using calipers, and was expressed in cubic millimeters according to the formula: V=0.5a×b2, where a and b are the long and the short diameters of the tumor, respectively. For histological analysis the surgical and xenograft tissue samples were fixed in 4% formaldehyde, paraffin embedded, and stained with hematoxilin & eosin and safran. Mice were monitored for at least 30 days after inoculation, and tumor measurements were taken on day 5, 10, 15, 20, 25, and 30. This study was conducted in compliance with international laws and policies (EEC Directive 86/609, OJ L 358. 1, Dec. 12, 1987; and NIH Guide for the Care and Use of Laboratory Animals, NIH Publ. No. 85-23, 1985). […]
(§1) The Tet-off gene expression system (Clontech, Palo Alto, Calif.) was used, as previously reported (17), to insert the human bcl-2 gene and for transfection into HT-29 cells following manufacturer's instructions. Bcl-2 protein was quantitated in the soluble cytosolic fraction by enzyme immunoassay (17) using a monoclonal antibody-based assay from Sigma (one unit of Bcl-2 was defined as the amount of Bcl-2 protein in 1000 non-transfected HT-29 cells).

[2] = system: bcl-2; assay: Bcl-2 protein enzyme immunoassay in xenograft samples; type: in vivo, human; conditions: single treatment (PQ or SOD2-AS)
Source text: as §1

[3] = system: SOD1; assay: SOD activity in xenograft samples; type: in vivo, human; conditions: single treatment (PQ or SOD2-AS)
Procedure: (§2) Tumor tissue was homogenized in 0.1M phosphate buffer (pH 7.2) at 4° C.
(§3) Superoxide dismutase (SOD) activity was measured as described by Flohé and Otting (14), using 2 mM cyanide in the assay medium to distinguish mangano-type enzyme (SOD2) from the cuprozinc type (SOD1).

[4] = system: SOD2; assay: SOD activity in xenograft samples; type: in vivo, human
Procedure: as §2, §3

[5] = system: HT-29 xenografts; assay: HT-29 xenograft growth; type: in vivo, nu/nu nude mice; conditions: Table 3B; HT-29; 30 days after inoculation
Procedure: Tumor growth was measured during a 30-day period. Tumor volume, one week after inoculation and before PF administration, was of 56+15 mm3. A. […] B. Growth profile of control ([…]) and t-PTER- and QUER (∘) (20 mg of each PF/kg)-treated HT-29-bearing mice. Data are means±S.D. of 18-20 mice per group. The significant test refers, for all groups, to the comparison between PTER and/or QUER and controls (treated with physiological saline) (*P<0.01). For HT-29 cancer cell xenograft experiments, female nu/nu nude mice (ages 6 to 8 weeks; […] Tumor volume was calculated based on two dimensions, measured using calipers, and was expressed in cubic millimeters according to the formula: […] For histological analysis the surgical and xenograft tissue samples were fixed in 4% formaldehyde, paraffin embedded, and stained with hematoxilin & eosin and safran. […] This study was conducted in compliance with international laws and policies (EEC Directive 86/609, OJ L 358. 1, Dec. 12, 1987; and NIH Guide for the Care and Use of Laboratory Animals, NIH Publ. No. 85-23, 1985). X rays were administered using a […] SL75 linear accelerator from Philips. For this purpose each mouse was anesthetized with nembutal (50 mg/kg i.p.), and fixed on a Perspex platform.

[6] = system: NF-κB p50/65; assay: NF-κB DNA binding ELISA in HT-29 nuclear extracts; type: cell-based, human; conditions: HT-29 cells; p65 siRNA transfection or 10 μg DHMEQ/ml, 2 h after removing the inhibitor
Procedure: HT-29 cells were cultured and treated with PFs as indicated in the caption to FIG. 1. (A) NF-κB binding to DNA (measured 3 h after the last PF addition). Recombinant human TNFα (0.5 nM, Sigma, St. Louis, Mo.) was added 6 h before the last PF addition. IκBα (B) and P-IκBα (C) analysis by western blot (lane 1, TNFα; lane 2, control; lane 3, […]). Relative densitometric intensities for protein bands from western blots of IκBα and P-IκBα) were normalized to β-actin (black bar, TNFα; white bar, control; grey bar, […]). […] Transfection of siRNA was performed as explained under “Materials and Methods”. (A) western blot analysis of p65 in cells transfected with p65 siRNA, or NS siRNA. For comparison NF-κB binding to DNA (B) and bcl-2 expression (RT-PCR) (C) were determined in HT-29 cells transfected with p65 siRNA or treated with dehydroxymethylepoxyquinomicin (DHMEQ). […] Nuclear extract were prepared as previously described (18). An enzyme linked immunosorbent assay (ELISA) was performed in line with the manufacturer's protocol for a commercial kit (Chemiluminiscent NF-κB p50/65 Transcription Factor Assay, Oxford Biomedical Research, Oxford, Mich.). […] The DNA bound NF-κB is selectively recognized by the primary antibody, which, in turn, is detected by the secondary antibodyalkaline phosphatase conjugate. […]

[7] = system: bcl-2; assay: bcl-2 expression (RT-PCR) in cultured HT-29 cells; type: cell-based, human; conditions: p65 siRNA transfection or 10 μg DHMEQ/ml, 12 h after removing the inhibitor
Procedure: Transfection of siRNA was performed as explained under “Materials and Methods”. (A) western blot analysis of p65 in cells transfected with p65 siRNA, or NS siRNA. For comparison NF-κB binding to DNA (B) and bcl-2 expression (RT-PCR) (C) were determined in HT-29 cells transfected with p65 siRNA or treated with dehydroxymethylepoxyquinomicin (DHMEQ). For this purpose cultured HT-29 cells (24 h after seeding) were incubated in the absence or in the presence of 10 μg DHMEQ/ml, and NF-κB activation and bcl-2 expression were measured 2 h and 12 h, respectively, after removing the inhibitor.
Total RNA was isolated using the trizol kit from Invitrogen and following manufacturer's instructions. cDNA was obtained using a random hexamer primer and a MultiScribe Reverse Transcriptase kit as described by the manufacturer (TaqMan RT Reagents, Applied Biosystems, Foster City, Calif.). […]
Real-time quantitation of the mRNA relative to GAPDH was performed with a SYBR Green I assay, and a iCycler detection system (Biorad, Hercules, Calif.). […] The increase in fluorescence was measured in real time during the extension step. The threshold cycle (CT) was determined, and then the relative gene expression was expressed as: fold change=2^−Δ(ΔCT), where ΔCT=CT target−CT GAPDH, and Δ (ΔCT)=ΔCT treated−ΔCT control. […]

**Q.** “SOD2-AS: Fully phosphorothioated 21-mer human SOD2 antisense oligodeoxynucleotide, 5′-GGAACCUCACAUCAACGCGCA-3′ (DNA, all phosphorothioate, methylation of C and T or U not given here)” was tested. Which Tumor volume [1] did it give?
**A.** Its Tumor volume is 2942 ± 387^ab mm^3.

**Q.** What about the Bcl-2 levels ([2]; HT-29/tet-Bcl-2 xenograft) of the same compound?
**A.** The Bcl-2 levels was 81 ± 9^a Units/mg protein.

**Q.** What about the Bcl-2 levels ([2]; HT-29 xenograft) of the same compound?
**A.** The Bcl-2 levels was 19 ± 3 Units/mg protein.

**Q.** And the SOD1 activity ([3]; HT-29/tet-Bcl-2 xenograft)?
**A.** The SOD1 activity was 6.3 ± 0.48 Units/mg protein.

**Q.** And the SOD1 activity ([3]; HT-29 xenograft)?
**A.** The SOD1 activity was 5.77 ± 0.62 Units/mg protein.

**Q.** And the SOD2 activity ([4]; HT-29/tet-Bcl-2 xenograft, single treatment (PQ or SOD2-AS))?
**A.** Its SOD2 activity is 0.33 ± 0.12 Units/mg protein.

**Q.** And the SOD2 activity ([4]; HT-29 xenograft, single treatment (PQ 20 mg each/kg or SOD2-AS 5 mg/kg each 3 days))?
**A.** The SOD2 activity was 0.27 ± 0.056^b Units/mg protein.

**Q.** And the Tumor volume [5]?
**A.** Its Tumor volume is 2337 ± 266^b mm^3.

**Q.** For `O=C(NC1=CC(=O)[C@H]2O[C@H]2[C@H]1O)c1ccccc1O` [DHMEQ, dehydroxymethylepoxyquinomicin], which “NF-κB binding to DNA” value [6] is on record?
**A.** Its value is “significant decrease”.

**Q.** And the bcl-2 expression [7]?
**A.** Its bcl-2 expression is “significant decrease”.
